Legend:
Assay type in all cases: in vivo
Oryza sativa (ORYSA) [1] = assay: F. Post-emergence effect on useful plants, ORYSA; details: useful plant
Method: (§1) Seeds of monocotyledonous and dicotyledonous weeds and crop plants were placed in sandy loam in plastic or organic planting pots, covered with soil and cultivated in a greenhouse under controlled growth conditions. 2 to 3 weeks after sowing, the test plants were treated at the one-leaf stage. The compounds of the invention, formulated in the form of wettable powders (WP) or as emulsion concentrates (EC), were then sprayed onto the green parts of the plants as aqueous suspension or emulsion with addition of 0.5% additive at a water application rate of 600 l/ha (converted). After the test plants had been kept in the greenhouse under optimum growth conditions for about 3 weeks, the activity of the preparations was rated visually in comparison to untreated controls.
(§2) For example, • 100% efficacy=plants have died, • 0% action=like untreated control plants.
(§3) Tables F1a to F4 below show the effects of selected compounds of the general formula (I) according to table 1 on various useful plants at an application rate corresponding to 320 g/ha or less, which were obtained by the experimental procedure mentioned above.

[2] = tested on: Alopecurus myosuroides (ALOMY); assay: E. Herbicidal post-emergence efficacy, ALOMY
Method: as §1, §2
(§4) Tables E1a to E12b below show the effects of selected compounds of the general formula (I) according to table 1 on various harmful plants at an application rate corresponding to 320 g/ha or less, which were obtained by the experimental procedure mentioned above.

Lolium rigidum (LOLRI) = assay: E. Herbicidal post-emergence efficacy, LOLRI
Method: as §1, §2, §4

Glycine max (GLXMA) [3] = assay: D. Pre-emergence effect on useful plants, GLXMA; details: useful plant
Source text: (§5) Seeds of monocotyledonous and dicotyledonous weed plants and crop plants were placed in plastic or organic planting pots and covered with soil. The compounds of the invention, formulated in the form of wettable powders (WP) or as emulsion concentrates (EC), were then applied to the surface of the covering soil as aqueous suspension or emulsion with addition of 0.5% additive at a water application rate equivalent to 600 l/ha (converted). After the treatment, the pots were placed in a greenhouse and kept under good growth conditions for the test plants. After about 3 weeks, the efficacy of the preparations was scored visually in comparison with untreated controls as percentages. For example, • 100% efficacy=plants have died, • 0% efficacy=like untreated control plants.
(§6) Tables D1a to D5b below show the effects of selected compounds of the general formula (I) according to table 1 on various useful plants at an application rate corresponding to 320 g/ha or less, which were obtained by the experimental procedure mentioned above.

Glycine max (GLXMA) [4] = assay: F. Post-emergence effect on useful plants, GLXMA; details: useful plant, application rate 80 g/ha
Method: as §1, §2, §3

Oryza sativa (ORYSA) [5] = assay: D. Pre-emergence effect on useful plants, ORYSA; details: useful plant
Source text: as §5, §6

Brassica napus (BRSNW) = assay: D. Pre-emergence effect on useful plants, BRSNW; details: useful plant
Source text: as §5, §6

[6] = tested on: Matricaria inodora (MATIN); assay: B. Herbicidal post-emergence efficacy, MATIN
Method: Seeds of mono- and dicotyledonous weed plants were placed in plastic pots in sandy loam soil (doubly sown with in each case one species of mono- or dicotyledonous weed plants per pot), covered with soil and cultivated in a greenhouse under controlled growth conditions. 2 to 3 weeks after sowing, the test plants were treated at the one-leaf stage. The compounds of the invention, formulated in the form of wettable powders (WP) or as emulsion concentrates (EC), were applied onto the green parts of the plants as aqueous suspension or emulsion with addition of 0.5% additive at a water application rate of 600 liters per hectare (converted). After the test plants had been kept in the greenhouse under optimum growth conditions for about 3 weeks, the activity of the preparations was rated visually in comparison to untreated controls.
For example, • 100% efficacy=plants have died, • 0% efficacy=like untreated control plants
Tables B1a to B12c below show the effects of selected inventive compounds of the general formula (I) according to table 1 on various harmful plants at an application rate corresponding to 1280 g/ha or less, which were obtained by the experimental procedure mentioned above.

Row | Compound | Post-emergence efficacy against ORYSA in % (Oryza sativa (ORYSA) [1]; application rate 80 g/ha) [%] | Post-emergence efficacy against ALOMY in % ([2]; application rate 320 g/ha) [%] | Post-emergence efficacy against LOLRI in % (Lolium rigidum (LOLRI); application rate 320 g/ha) [%] | other results
1 | O=S(=O)(CCCCCl)Oc1ccccc1Oc1ncc(Cl)cn1 [Example I-15] | 0 |  |  | Post-emergence efficacy against ORYSA in % (Oryza sativa (ORYSA) [1]; application rate 320 g/ha): 20%
2 | O=S(=O)(CCCC(F)(F)F)Oc1ccccc1Oc1ncc(Cl)cn1 [Example I-10] |  | 100 | 90 | Post-emergence efficacy against ALOMY in % ([2]; application rate 80 g/ha): 90%
3 | O=S(=O)(CCC1CC1)Oc1c(F)cccc1Oc1ncc(Cl)cn1 [Example I-55] |  |  | 80 | Pre-emergence efficacy against GLXMA in % (Glycine max (GLXMA) [3]; application rate 80 g/ha): 10%
4 | O=S(=O)(CCCCl)Oc1cccc(F)c1Oc1ncc(Cl)cn1 [Example I-13] | 10 |  |  | Post-emergence efficacy against GLXMA in % (Glycine max (GLXMA) [4]): 10%; Pre-emergence efficacy against GLXMA in % (Glycine max (GLXMA) [3]; application rate 80 g/ha): 10%; Pre-emergence efficacy against GLXMA in % (Glycine max (GLXMA) [3]; application rate 320 g/ha): 20%; Pre-emergence efficacy against ORYSA in % (Oryza sativa (ORYSA) [5]; application rate 80 g/ha): 10%
5 | O=S(=O)(CCCC(F)(F)F)Oc1c(F)cccc1Oc1ncc(Br)cn1 [Example I-41] |  | 100 |  | 
6 | CC(C)CCS(=O)(=O)Oc1ccccc1Oc1ncc(Cl)cn1 [Example I-25] | 0 |  |  | Pre-emergence efficacy against GLXMA in % (Glycine max (GLXMA) [3]; application rate 80 g/ha): 0%; Pre-emergence efficacy against ORYSA in % (Oryza sativa (ORYSA) [5]; application rate 80 g/ha): 0%
7 | O=S(=O)(CCCC(F)(F)F)Oc1c(F)cccc1Oc1ncc(F)cn1 [Example I-42] |  | 100 | 100 | Post-emergence efficacy against ALOMY in % ([2]; application rate 80 g/ha): 90%; Post-emergence efficacy against LOLRI in % (Lolium rigidum (LOLRI); application rate 80 g/ha): 80%
8 | CCCCCS(=O)(=O)Oc1ccccc1Oc1ncc(Cl)cn1 [Example I-24] | 0 |  |  | Pre-emergence efficacy against BRSNW in % (Brassica napus (BRSNW); application rate 80 g/ha): 0%; Pre-emergence efficacy against BRSNW in % (Brassica napus (BRSNW); application rate 320 g/ha): 0%; Post-emergence efficacy against ORYSA in % (Oryza sativa (ORYSA) [1]; application rate 320 g/ha): 0%; Pre-emergence efficacy against ORYSA in % (Oryza sativa (ORYSA) [5]; application rate 80 g/ha): 0%; Pre-emergence efficacy against ORYSA in % (Oryza sativa (ORYSA) [5]; application rate 320 g/ha): 20%
9 | O=S(=O)(CC1CC1)Oc1ccccc1Oc1ncc(Cl)cn1 [Example I-23] | 0 | 80 |  | 
10 | O=S(=O)(CCCC(F)(F)F)Oc1c(F)cccc1Oc1ncc(Cl)cn1 [Example I-49] |  | 80 | 80 | 
11 | O=S(=O)(CC1CC1(Cl)Cl)Oc1c(F)cccc1Oc1ncc(Cl)cn1 (stereo not shown) [Example I-57] |  |  |  | Post-emergence efficacy against MATIN ([6]; 320 g/ha): 90%; Post-emergence efficacy against MATIN ([6]; 1280 g/ha): 90%
12 | C=CCCS(=O)(=O)Oc1c(F)cccc1Oc1ncc(Cl)cn1 [Example I-50] |  |  |  | Post-emergence efficacy against MATIN ([6]; 1280 g/ha): 90%
13 | O=S(=O)(CCC(F)(F)F)Oc1c(Cl)cccc1Oc1ncc(Cl)cn1 [Example I-38] |  | 80 |  | 
14 | CCCCS(=O)(=O)Oc1ccccc1Oc1ncc(Cl)cn1 [Example I-6] |  | 90 |  | 
15 | O=S(=O)(CCCC(F)(F)C(F)(F)F)Oc1c(F)cccc1Oc1ncc(Cl)cn1 [Example I-68] |  |  |  | Pre-emergence efficacy against GLXMA in % (Glycine max (GLXMA) [3]; application rate 80 g/ha): 10%
16 | O=S(=O)(CCCCl)Oc1ccccc1Oc1ncc(F)cn1 [Example I-5] | 20 | 90 | 90 | Post-emergence efficacy against ALOMY in % ([2]; application rate 80 g/ha): 80%; Post-emergence efficacy against MATIN ([6]; 1280 g/ha): 90%

Row | Compound | Post-emergence efficacy against ORYSA in % (Oryza sativa (ORYSA) [1]; application rate 80 g/ha) [%] | Post-emergence efficacy against ALOMY in % ([2]; application rate 320 g/ha) [%] | Post-emergence efficacy against LOLRI in % (Lolium rigidum (LOLRI); application rate 320 g/ha) [%] | other results
17 | O=S(=O)(CCC(F)(F)F)Oc1c(F)cccc1Oc1ncc(F)cn1 [Example I-47] |  | 100 | 100 | 
18 | O=S(=O)(CCC(F)(F)F)Oc1ccccc1Oc1ncc(Cl)cn1 [Example I-8] | 20 | 90 | 80 | 
19 | O=S(=O)(CCC(F)(F)F)Oc1c(Cl)cccc1Oc1ncc(Br)cn1 [Example I-32] |  |  |  | Pre-emergence efficacy against GLXMA in % (Glycine max (GLXMA) [3]; application rate 80 g/ha): 0%; Pre-emergence efficacy against GLXMA in % (Glycine max (GLXMA) [3]; application rate 320 g/ha): 0%
20 | O=S(=O)(CC1CC(F)(F)C1)Oc1c(F)cccc1Oc1ncc(Cl)cn1 [Example I-53] |  | 100 | 100 | Post-emergence efficacy against ALOMY in % ([2]; application rate 80 g/ha): 90%; Post-emergence efficacy against LOLRI in % (Lolium rigidum (LOLRI); application rate 80 g/ha): 80%
21 | CC(C)CS(=O)(=O)Oc1ccccc1Oc1ncc(Cl)cn1 [Example I-7, [2-(5-Chloropyrimidin-2-yl)oxyphenyl] 2-methylpropane-1-sulfonate] |  | 90 |  | 
22 | O=S(=O)(CCC(F)(F)F)Oc1c(F)cccc1Oc1ncc(Br)cn1 [Example I-40] |  | 90 |  | 
23 | CCCS(=O)(=O)Oc1ccccc1Oc1ncc(Cl)cn1 [Example I-3] | 10 | 80 |  | Pre-emergence efficacy against ORYSA in % (Oryza sativa (ORYSA) [5]; application rate 80 g/ha): 20%
24 | O=S(=O)(CCCCl)Oc1c(F)cccc1Oc1ncc(Cl)cn1 [Example I-14] |  | 90 |  | 
25 | O=S(=O)(CCCC(F)(F)F)Oc1c(Cl)cccc1Oc1ncc(Br)cn1 [Example I-34] |  |  |  | Pre-emergence efficacy against GLXMA in % (Glycine max (GLXMA) [3]; application rate 80 g/ha): 0%
26 | O=S(=O)(CCl)Oc1ccccc1Oc1ncc(Cl)cn1 [Example I-9] | 10 |  |  | Post-emergence efficacy against ORYSA in % (Oryza sativa (ORYSA) [1]; application rate 320 g/ha): 10%; Pre-emergence efficacy against ORYSA in % (Oryza sativa (ORYSA) [5]; application rate 80 g/ha): 0%
27 | N#Cc1cccc(Oc2ncc(Cl)cn2)c1OS(=O)(=O)CCCC(F)(F)F [Example I-81] |  | 90 | 80 | Pre-emergence efficacy against GLXMA in % (Glycine max (GLXMA) [3]; application rate 80 g/ha): 0%
28 | C=CCS(=O)(=O)Oc1ccccc1Oc1ncc(Cl)cn1 [Example I-36] |  |  |  | Pre-emergence efficacy against GLXMA in % (Glycine max (GLXMA) [3]; application rate 80 g/ha): 0%
29 | O=S(=O)(CCCCl)Oc1ccccc1Oc1ncc(Cl)cn1 [Example I-2] | 0 | 90 |  | 
30 | O=S(=O)(CCCC(F)F)Oc1c(F)cccc1Oc1ncc(Cl)cn1 [Example I-56] |  | 80 |  | Post-emergence efficacy against MATIN ([6]; 320 g/ha): 90%; Post-emergence efficacy against MATIN ([6]; 1280 g/ha): 90%
31 | O=S(=O)(CCC(F)(F)F)Oc1c(F)cccc1Oc1ncc(Cl)cn1 [Example I-48] |  | 100 | 90 | 

From patent US20240174618A1, “SUBSTITUTED (2-HETEROARYLOXYPHENYL)SULFONATES, SALTS THEREOF AND THEIR USE AS HERBICIDAL AGENTS” (Bayer Aktiengesellschaft, priority 2021, published 2024)
